From patent publication US20140010801A1, “Compositions and Methods for Restoring or Rejuvenating Stem/Progenitor Cell Function” (UNIVERSITY OF PITTSBURGH - OF THE COMMONWEALTH SYSTEM OF …, priority 2012, published 2014)

Key:
aged WT MDSPCs = experiment: Myogenic potential (fusion index) of aged MDSPCs under IKK-β inhibition; assay type: cell-based, mouse; design: dose or concentration left out as unconfirmed; settings: fusion conditions
Description: Reduction of NF-κB enhances the myogenic differentiation potential and resistance to stress in MDSPCs isolated from naturally aged mice. To determine further whether the NF-κB signaling pathway plays a role in driving age-related stem cell dysfunction, whether pharmacologic inhibition of IKK-β would restore the myogenic potential of aged WT MDSPCs was examined. […] MDSPCs were isolated from 30 month old p65^+/− and 24 month old WT mice and compared the myogenic potential of 30 month old p65^+/− MDSPCs in vitro to naturally aged WT MDSPCs. The results confirmed that MDSPCs from p65^+/− aged mice (30 month) were more myogenic than MDSPCs from 24 month old WT mice.

Ercc1^−/Δ mice = experiment: Chronic XJB-5-131 treatment of Ercc1−/Δ mice; assay type: in vivo, mouse
Ercc1^−/− MEFs = experiment: Reversal of senescence (SA-β-gal+) of Ercc1−/− MEFs; assay type: cell-based, mouse; settings: within 24 hours of treatment
Experimental: FIG. 19 depicts analysis of the ability of an IKK inhibitor (IKKiVII) to rescue senescence (SA-β-gal+) […] MEFs after 24 hours of treatment.
To determine whether NF-κB is activated by endogenous genotoxic stress, which arises as a consequence of normal metabolism, Ercc1^−/− primary cells and mice were used, which are defective in DNA repair were used. Phosphorylated p65 (p-p65) and IκB were measured in nuclear and cytoplasmic extracts from early passage, congenic Ercc1^−/− and WT primary MEFs by immunoblot, and there was a >2-fold increase in nuclear p-p65 in Ercc1^−/− MEFs compared to WT, which correlated with an increase in the level of phosphorylated IκB (p-IκB) in the cytoplasm. EMSA was used to confirm increased NF-κB binding in nuclear extracts of Ercc1^−/− MEFs, which was abrogated by pretreatment of the samples with an anti-p65 antibody. To determine whether premature senescence of Ercc1^−/− MEFs is NF-κB dependent, the growth of Ercc1^−/−; p65^−/− MEFs was compared to congenic Ercc1−/− MEFs. Ercc1^−/− MEFs have reduced proliferation and increased replicative senescence as measured by SA-β-Gal staining, γ-H2AX foci and p16 expression. […] Furthermore, the Ercc1^−/−; p65^−/− MEFs had reduced ROS compared to Ercc1 cells as determined by staining mitochondria with DiOC6 and superoxide anion with MitoSOX. […]

NC(=O)Nc1sc(-c2ccc(F)cc2)cc1C(N)=O [IKKβ inhibitor IV]
fusion index of aged MDSPCs (aged WT MDSPCs): significantly increased

CC(C)C[C@@H](/C=C/[C@H](Cc1ccccc1)C(=O)N1CCC[C@H]1C(=O)N[C@H](C(=O)N[C@@H](CCCNC(=O)OCc1ccccc1)C(=O)NC1CC(C)(C)N([O])C(C)(C)C1)C(C)C)NC(=O)OC(C)(C)C [XJB-5-131]
onset of aging-related degenerative changes (Ercc1^−/Δ mice): delay the onset

O=C(c1ccc(Nc2nccc(-c3cc4ccccc4s3)n2)cc1)N1CCC(N2CCCC2)CC1 [IKKiVII]
senescence of Ercc1^−/− MEFs (>60% of cells SA-βgal+) (Ercc1^−/− MEFs): could be reversed
